Columns and labels:
[1] = compared to cisplatin; cited from earlier work
rat L6 cells = test: number of rat L6 cells in flask with bar magnet after sprinkling Fe complex powder; format: cell-based; details: 48 hours, bar magnet in contact with flask
Description: A group of samples shown on the left side is obtained by diluting a pyridine concentrate solution with water (double distilled water (DDW)), while a group of samples shown on the right side is obtained by diluting a pyridine iron complex saturated solution with pyridine. By changing the concentration of the iron complex in pyridine to, for example, ½ or 1/16 of the aforementioned concentration of the solution containing only pyridine, the MRI can detect changes in the concentration through images. Subsequently, when rat L6 cells were in 30% confluent state, Fe complex powder was sprinkled over a culture medium as much as required to enable visual observation of the Fe complex powder when being drawn to magnets. 48 hours later, the condition of the culture medium was photographed.
Referring to FIG. 22, “proximal to magnet” means within the projected area of the bottom of the rectangular flask in contact with the end face of the magnet, while “distal from magnet” means an area of the rectangular flask opposite the end face of the magnet. […] As a result, the magnetic drug and the system including the magnetic field generating means according to the present invention can concentrate the drug at the target affected part or tissues of an individual body.

[2] = magnetic guidance to mouse right kidney, SNR measured by MRI; format: in vivo; details: intravenous, 5 mg/ml (15 mM), right kidney approximately 0.3 T, 10 minutes
Description: Next, another example of a guidance system according to the present invention will be explained. In this guidance system, a pair of magnets 230 and 232 located opposite to each other in a direction of gravitational force is supported by a stand 234 and a clamp 235, and a metal plate 236 is placed between the magnets as shown in FIG. 23. A locally uniform and strong magnet field can be generated by placing the metal plate, particularly an iron plate, between the pair of magnets.
The drug can be concentrated on the target tissues by placing the tissues of the individual body in this area of the magnetic field. The aforementioned metal complex (drug concentration: 5 mg/ml (15 mM)) was administered intravenously to a mouse (weight: approximately 30 g), the abdominal cavity of the mouse was opened, and the mouse was then placed on the iron plate so that its right kidney was positioned between the pair of magnets.
The magnets used were neodymium permanent magnets made by Shin-Etsu Chemical Co., Ltd. (product number: N50; residual magnetic flux density: 1.39-1.44 T). […] The magnetic field was applied to the mouse's right kidney; and 10 minutes later, the SNR of the right kidney as well as the left kidney […] (control) to which no magnetic field was applied was measured in T1 mode and T2 mode, using the MRI system.

Molecule | anticancer effect [1] | number of cells at area proximal to the magnet compared to area distal from the magnet (rat L6 cells) | amount of drug held in kidney tissues (SNR, T1 and T2 mode MRI) [2]
CC(C[NH-])CC[NH-].O=C([O-])C1(C(=O)[O-])CCC1.[Pt+4] [NK121] | comparable to that of cisplatin | – | –
Fe-salen | – | extremely low | larger amount of the drug could be held in the tissues of the right kidney (RT)
